The values that follow come from PubChem BioAssay AID624472 (The Scripps Research Institute Molecular Screening Center, 2012).

The target of the test is Monoacylglycerol lipase ABHD6 (Mus musculus) (UniProt Q8R2Y0). The test is described as follows: ABHD6 inhibition in mouse proteome, late-stage follow-up, selectivity assay for DAGLb inhibitor project, biochemical, gel-based competitive ABPP, fluorescence, enantiomers (AID 624472). To be noted: at 10 µM (top of the series).
Sequence of Monoacylglycerol lipase ABHD6 (Mus musculus) (Q8R2Y0 whole entry, looked up): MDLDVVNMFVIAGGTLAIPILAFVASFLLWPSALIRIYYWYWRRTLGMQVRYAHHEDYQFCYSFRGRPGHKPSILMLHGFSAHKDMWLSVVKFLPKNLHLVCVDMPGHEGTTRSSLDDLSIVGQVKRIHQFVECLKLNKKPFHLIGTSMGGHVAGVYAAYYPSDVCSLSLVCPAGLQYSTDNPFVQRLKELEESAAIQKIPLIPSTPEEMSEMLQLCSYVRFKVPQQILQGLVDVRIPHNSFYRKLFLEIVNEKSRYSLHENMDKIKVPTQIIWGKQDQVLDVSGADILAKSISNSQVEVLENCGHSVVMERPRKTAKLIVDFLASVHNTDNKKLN

Broadly, the inhibition is the change of the read-out against control, counted positive when it falls. Compound `O=C(N1CCCCC1Cc1ccccc1)n1cc(-c2ccc(Br)cc2)nn1` (stereo unspecified) displayed an inhibition of 100%.
